This is an account of results in patent US20100105111A1, “METHOD FOR PRODUCTION OF OPTICALLY ACTIVE AMINO ACID” (Mitsubishi Gas Chemical Company, Inc., priority 2007, published 2010).

The structures appear in SMILES notation.

The target in experiment [1] is T1, aminocaprolactam racemase derived from Achromobacter obae (Achromobacter obae, UniProt Q7M181).
T1 sequence (Q7M181 1-436): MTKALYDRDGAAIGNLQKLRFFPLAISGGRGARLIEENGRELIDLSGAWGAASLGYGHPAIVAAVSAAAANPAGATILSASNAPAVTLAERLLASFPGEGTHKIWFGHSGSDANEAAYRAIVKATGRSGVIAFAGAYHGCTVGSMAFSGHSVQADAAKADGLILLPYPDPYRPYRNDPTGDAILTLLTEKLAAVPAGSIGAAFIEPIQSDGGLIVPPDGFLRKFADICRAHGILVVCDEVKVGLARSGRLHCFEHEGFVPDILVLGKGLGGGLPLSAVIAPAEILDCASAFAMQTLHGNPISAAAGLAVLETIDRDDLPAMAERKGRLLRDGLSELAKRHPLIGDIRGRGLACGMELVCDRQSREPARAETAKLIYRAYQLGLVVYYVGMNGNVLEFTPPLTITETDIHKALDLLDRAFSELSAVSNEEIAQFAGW
The conditions noted are these: activity for 2-aminobutyric acid amide is 100; cited from earlier work.

In experiment [2] the test system is nitrile hydratase derived from Rhodococcus opacus 71D. The experiment can be described thus: Substrate specificity of the purified enzyme from Rhodococcus opacus 71D (aminonitrile to amino acid amide, HPLC). The conditions noted are these: for Relative activity for each substrate: enzymatic properties, activity for 2-aminobutyronitrile is 100; for Relative activity: 30° C., 0.1 M potassium phosphate buffer pH 7.0, activity for 2-aminobutyronitrile = 100.

The target of experiment [3] is D-aminopeptidase derived from Ochrobactrum anthropi (Brucella anthropi, UniProt Q9ZBA9). The conditions noted are these: activity for D-2-aminobutyric acid amide is 100; cited from earlier work.
Sequence of D-aminopeptidase derived from Ochrobactrum anthropi (Q9ZBA9 whole entry, looked up): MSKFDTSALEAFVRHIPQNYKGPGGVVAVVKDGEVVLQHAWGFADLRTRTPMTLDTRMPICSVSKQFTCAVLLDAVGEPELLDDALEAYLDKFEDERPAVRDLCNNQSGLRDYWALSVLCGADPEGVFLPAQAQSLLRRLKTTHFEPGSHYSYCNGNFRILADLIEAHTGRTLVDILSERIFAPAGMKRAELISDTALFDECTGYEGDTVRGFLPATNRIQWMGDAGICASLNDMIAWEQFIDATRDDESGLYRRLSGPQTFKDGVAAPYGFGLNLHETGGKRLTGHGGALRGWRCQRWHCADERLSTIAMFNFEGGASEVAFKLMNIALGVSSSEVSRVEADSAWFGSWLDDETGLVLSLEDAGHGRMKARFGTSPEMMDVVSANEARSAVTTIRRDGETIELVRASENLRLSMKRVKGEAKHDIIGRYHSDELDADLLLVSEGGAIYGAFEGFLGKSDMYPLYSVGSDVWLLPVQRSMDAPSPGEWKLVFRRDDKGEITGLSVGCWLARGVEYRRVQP
The subject of experiment [4] is L-amino acid amidase derived from Brevundimonas diminuta. The conditions noted are these: activity for L-2-aminobutyric acid amide is 100; cited from earlier work.
Experiment [5] relates to enzyme selectively converting the L-amino acid amide into the L-amino acid, Xanthobacter flavus. The conditions noted are these: activity for L-2-aminobutyric acid amide is 100; cited from earlier work.

Take `CCC(N)C(N)=O` (stereo not drawn) [2-aminobutyric acid amide]: the “Relative activity for each substrate” value in experiment [1] was 100.

For `CCC(N)C#N` (stereo not drawn) [2-aminobutyronitrile], the “Relative activity for each substrate” value in experiment [2] worked out at 100. In experiment [2] (substrate 20 mM), this compound registered a Relative activity of 100.

For the compound `CC(N)C#N` (stereo not drawn) [Alaninonitrile], the “Relative activity for each substrate” value in experiment [2] was determined as 77. In experiment [2] (substrate 20 mM), this compound had a Relative activity of 77.0.

Regarding `CC[C@@H](N)C(N)=O` [D-2-aminobutyric acid amide], the “Relative activity for each substrate” value in experiment [3] is listed as 100.

For `C[C@@H](N)C(N)=O` [D-alaninamide], in experiment [3], the “Relative activity for each substrate” value was 333.

Consider `CSCC[C@@H](N)C(N)=O` [D-methioninamide], for which the “Relative activity for each substrate” value in experiment [3] is on record as 6.7.

As to `CCCC[C@@H](N)C(N)=O` [D-norleuicinamide], the “Relative activity for each substrate” value in experiment [3] is 2.7.

On to `CCC[C@@H](N)C(N)=O` [D-norvalinamide], for which the “Relative activity for each substrate” value in experiment [3] was 6.

In the case of `NC(=O)[C@H](N)c1ccccc1` [D-phenylglycinamide], the “Relative activity for each substrate” value in experiment [3] is recorded as 2.3.

With `NC(=O)[C@H](N)CO` [D-serinamide], the “Relative activity for each substrate” value in experiment [3] is 97.

As to `C[C@H](O)[C@@H](N)C(N)=O` [D-threoninamide], the “Relative activity for each substrate” value in experiment [3] is on record as 30.

Consider `CC[C@H](N)C(N)=O` [L-2-aminobutyric acid amide], for which the “Relative activity for each substrate” value in experiment [4] and in experiment [5] was 100 throughout.

`C[C@H](N)C(N)=O` [L-alaninamide]: the “Relative activity for each substrate” value was 3.4 in experiment [4] and 78 in experiment [1].

With `CC[C@H](C)[C@H](N)C(N)=O` [L-isoleuicinamide], the “Relative activity for each substrate” value in experiment [4] is 30.2.

For `CC(C)C[C@H](N)C(N)=O` [L-leuicinamide], the results for the “Relative activity for each substrate” value in experiment [4] and in experiment [1] were 92.7 and 48, respectively.

Regarding `CSCC[C@H](N)C(N)=O` [L-methioninamide], the “Relative activity for each substrate” value in experiment [4] is recorded as 85.4; in experiment [1], 35.

`CCCC[C@H](N)C(N)=O` [L-norleuicinamide]: the “Relative activity for each substrate” value in experiment [1] is 56.

For the compound `CCC[C@H](N)C(N)=O` [L-norvalinamide], in experiment [1], the “Relative activity for each substrate” value is listed as 63.

`NC(=O)[C@@H](N)Cc1ccccc1` [L-phenylalaninamide]: the “Relative activity for each substrate” value in experiment [4] is reported as 104; in experiment [5] it was 111; in experiment [1] it was 2.

With `NC(=O)[C@@H](N)c1ccccc1` [L-phenylglycinamide], the “Relative activity for each substrate” value in experiment [5] is listed as 113.

In the case of `NC(=O)[C@@H](N)CO` [L-serinamide], the “Relative activity for each substrate” value in experiment [4] is 2.9; in experiment [1] it was 17.

Take `CC(C)(C)[C@H](N)C(N)=O` [L-t-leuicinamide]: the figures for the “Relative activity for each substrate” value in experiment [4] and in experiment [5] were 0.2 and 8.4, respectively.

In the case of `C[C@@H](O)[C@H](N)C(N)=O` [L-threoninamide], the “Relative activity for each substrate” value is recorded as 14.6 in experiment [4] and 63 in experiment [1].

For `CC(C)[C@H](N)C(N)=O` [L-valinamide], the “Relative activity for each substrate” value in experiment [4] is reported as 17.7; in experiment [5] it was 65.

Consider `N#C[C@@H](N)Cc1ccccc1` [Phenylalaninonitrile], for which, in experiment [2], the “Relative activity for each substrate” value amounted to 42.9. The Relative activity in experiment [2] (substrate concentration 10 mM) worked out at 42.9.

On to `N#CC(N)c1ccccc1` (stereo not drawn) [Phenylglycinonitirle], for which, in experiment [2], the “Relative activity for each substrate” value was determined as 177. Also, the Relative activity in experiment [2] (substrate 20 mM) is recorded as 177.

For the compound `CC(C)[C@H](N)C#N` [Valinonitrile], the “Relative activity for each substrate” value in experiment [2] was 15.1. Further, in experiment [2] (substrate 20 mM), the Relative activity is on record as 15.1.

Turning to `CC(C)C[C@H](N)C#N` [leucinonitrile], in experiment [2], the “Relative activity for each substrate” value worked out at 11.8.

As for `CC(C)(C)C(N)C#N` (stereo not drawn) [t-leuicinonitrile], in experiment [2], the “Relative activity for each substrate” value amounted to 1.80. The compound further returned a Relative activity in experiment [2] (substrate 20 mM) of 1.8.
